Experimental data taken from patent US9376393B2, “Quinoline compounds which are anti-angiogenic integrin alpha5 beta1 inhibitors for use in the treatment of fibrosis or fibrosis-related diseases” (Clanotech AB, priority 2012, dated 2016).
Where “and” joins values, the source holds several entries; their conditions need not be identical. Identical values can stand only once. Counter-ions that a name gives are not always drawn.

Assays:
Type in all cases: in vivo
TGF-β = assay: Bleomycin-induced lung fibrosis mouse model: immunohistochemical localization of TGF-β
Experimental: (§1) Bleomycin-induced Lung Fibrosis Mouse Model
(§2) Thirty male CD-1 mice weighing 27.5±0.4 g were used in this study (obtained from Harlan Nossan, Milan, Italy), and were allowed access to food and water ad libitum. The mice were kept in laminar flow rooms at constant temperature and humidity with 3 animals in each cage. The temperature of the room was controlled between 20-26° C. and the humidity of the room was controlled between 40-70%.
(§3) Mice received a single intra-tracheal instillation of saline (0.9%), or saline containing bleomycin sulfate (BLM, 0.1 IU per mouse) in a volume of 100 μl. Mice were then sacrificed after 7 days by pentobarbitone overdose. […]
(§4) At 7 days after BLM administration, lung tissues were fixed in 10% PBS-buffered formaldehyde and 7 μm sections were prepared from paraffin-embedded tissues. […] Specific labeling was detected with a biotin-conjugated goat anti-rabbit IgG and avidin-biotin peroxidase complex (DBA). […]

COX-2 = assay: Bleomycin-induced lung fibrosis mouse model: immunohistochemical localization of COX-2
Experimental: as §1, §2, §3, §4

Poly-ADP-ribose (PAR) = assay: Bleomycin-induced lung fibrosis mouse model: immunohistochemical localization of PAR
Experimental: as §1, §2, §3, §4

[1] = tested on: bleomycin-induced lung fibrosis; assay: Bleomycin-induced lung fibrosis mouse model: overall outcome
Text: as §1
(§5) Pulmonary fibrosis is a common response to various insults to the lung and is the end-point of a numerous and heterogenous group of disorders known as interstitial lung disease (ILD), characterized by chronic inflammation and progressive fibrosis of the pulmonary interstitium. […] instillation of the anti-tumour agent bleomycin (BLM) is the most commonly used animal model for pulmonary fibrosis.
as §2
(§6) Mice received a single intra-tracheal instillation of saline (0.9%), or saline containing bleomycin sulfate (BLM, 0.1 IU per mouse) in a volume of 100 μl. Mice were then sacrificed after 7 days by pentobarbitone overdose.
(§7) Animals were randomized into three experimental groups of 10 animals in each group, and were treated with either hydroxypropyl methyl cellulose (HPMC) (0.5%)/HPbetaCyclodextrin (20%) as a 5 ml/kg s.c. injection 30 min after intra-tracheal instillation of BLM and every 12 h thereafter until completion of the study, or with the compound I-4×HCl (4-[(4-Methoxyphenyl)amino]-6-(methylcarbamoyl)quinoline-3-carboxylic acid hydrochloride) at 30 mg/kg as a s.c. injection 30 min after intra-tracheal instillation of BLM and every 12 h thereafter until completion of the study.
The levels of various fibrotic markers were measured in the three groups (A, B and C). For each marker, the level measured in the bleomycin-injured, vehicle-treated group (BLM+Vehicle) was taken as 100%. In Table 3, the corresponding marker levels for the “sham injured” group treated with vehicle (Sham+Vehicle), and the bleomycin-injured group treated with compound I-4 (BLM+I-4×HCl), are indicated as a percentage of the level in the BLM+Vehicle group.

iNOS = assay: Bleomycin-induced lung fibrosis mouse model: immunohistochemical localization of iNOS
Experimental: as §1, §2, §3, §4

Nitrotyrosine = assay: Bleomycin-induced lung fibrosis mouse model: immunohistochemical localization of nitrotyrosine
Experimental: as §1, §2, §3, §4

IL-1β = assay: Bleomycin-induced lung fibrosis mouse model: measurement of cytokines, IL-1β; details: percentage of the level in the BLM+Vehicle group (100%); 30 mg/kg s.c. every 12 h; 7 days after BLM
Experimental: as §1, §2, §6, §7
(§8) TNF-α and IL-1β levels were evaluated from lung tissues collected at 7 days after BLM administration. […]

[2] = Bleomycin-induced lung fibrosis mouse model: observations, body weight; details: 30 mg/kg 30 min after intra-tracheal BLM and every 12 h thereafter
Experimental: as §1, §2, §3
At the time of routine monitoring, the animals were checked for any effects of acute lung injury and treatments on normal behavior such as mobility, food and water consumption (by looking only), body weight gain/loss (body weights were measured daily), eye/hair matting and any other abnormal effect. Death and observed clinical signs were recorded on the basis of the numbers of animals within each subset.

TNF-α = assay: Bleomycin-induced lung fibrosis mouse model: measurement of cytokines, TNF-α; details: percentage of the level in the BLM+Vehicle group (100%); 30 mg/kg s.c. every 12 h; 7 days after BLM
Experimental: as §1, §2, §6, §7, §8

Myeloperoxidase (MPO) = assay: Bleomycin-induced lung fibrosis mouse model: myeloperoxidase (MPO) assay in lung; details: percentage of the level in the BLM+Vehicle group (100%); 30 mg/kg s.c. every 12 h; 7 days after BLM
Experimental: as §1, §2, §3
Myeloperoxidase (MPO) activity was determined 7 days after BLM injection. […] The rate of change in absorbance was measured spectrophotometrically at 650 nm. MPO activity was defined as the quantity of enzyme degrading 1 μmol of peroxide per min at 37° C. and was expressed in units per gram weight of wet tissue.

[3] = tested on: bleomycin-induced lung fibrosis; assay: Bleomycin-induced lung fibrosis mouse model: histological examination, scoring for lung fibrosis; set-up: key to Histological fibrosis score / Histological fibrosis score, Mean: 0 = normal lung, 8 = total fibrous obliteration of fields
Text: as §1, §5, §2, §6, §7
Lung biopsies were taken 7 days after BLM injection. After fixation at room temperature in buffered formaldehyde solution (10% in phosphate buffered saline [PBS]), the sections were prepared and stained by haematoxylin-eosin and observed with an Axiovision Zeiss microscope (Milan, Italy).
Scoring for lung fibrosis was graded on a scale from 0 to 8 by examining randomly chosen sections, with 5 fields per sample at a magnification of ×100. Criteria for grading lung fibrosis were as follows: grade 0, normal lung; grade 1, minimal fibrous thickening of alveolar or bronchiolar walls; grade 3, moderate thickening of walls without obvious damage to lung architecture; grade 5, increased fibrosis with definite damage to lung structure and formation of fibrous bands or small fibrous masses; grade 7, severe distortion of structure and large fibrous areas; and grade 8, total fibrous obliteration of fields (Cuzzocrea S, et al. Am J Physiol Lung Cell Mol Physiol. (2007) 292:L1095-104).
All data in the text are presented as mean±s.e. mean of n observations, where n represents the number of animals studied. All statistical analysis was calculated using GraphPad Prism 5 (GraphPad Software, San Diego, Calif., USA). Data without repeated measurements were assessed by a Mann-Whitney U t-test. Data with repeated measurements were assessed by a two-way ANOVA followed by a Bonferroni post-hoc test. A P-value of less than 0.05 was considered to be statistically significant.

lung oedema = assay: Bleomycin-induced lung fibrosis mouse model: measurement of lung oedema
Experimental: as §1, §2, §3
The wet lung weight was measured 7 days after BLM injection by careful excision of the lung from other adjacent extraneous tissues. The lung was then exposed for 48 h to 180° C. and the dry weight measured. Water content was then calculated by subtracting the dry weight from the wet weight.

[4] = tested on: Thiobarbituric acid-reactant substances (TBARS); assay: Bleomycin-induced lung fibrosis mouse model: thiobarbituric acid-reactant substances in lung; details: percentage of the level in the BLM+Vehicle group (100%); 30 mg/kg s.c. every 12 h; 7 days after BLM
Experimental: as §1, §2, §3
Thiobarbituric acid-reactant substances (TBARS) measurement, which is considered a good indicator of lipid peroxidation, was determined in the lung tissues collected at 7 days after BLM administration. […] The absorbance of the supernatant was measured spectrophotometrically at […]. Levels of TBARS are expressed as μM/100 mg of wet tissue.

[5] = BLM-injured mice treated with compound, compared with sham group
[6] = percentage of the level in the BLM+Vehicle group (100%), 30 mg/kg s.c. every 12 h, 7 days after BLM
[7] = 30 mg/kg 30 min after intra-tracheal BLM and every 12 h thereafter

For `CNC(=O)c1ccc2ncc(C(=O)O)c(Nc3ccc(OC)cc3)c2c1` [Compound I-4, 4-[(4-Methoxyphenyl)amino]-6-(methylcarbamoyl)quinoline-3-carboxylic acid], the “TGF-β level versus sham group (in words)” value (TGF-β; [5]) was “reduced to levels similar to those of the sham group”, the “COX-2 level versus sham group (in words)” value (COX-2; [5]) was “reduced to levels similar to those of the sham group” and the “poly-ADP-ribose (PAR) level versus sham group (in words)” value (Poly-ADP-ribose (PAR); [5]) was “reduced to levels similar to those of the sham group”. The “levels of the markers induced by bleomycin (in words)” value ([1]; all markers of Table 3, versus BLM+Vehicle) was “statistically significantly reduced”, the “overall effect in the bleomycin model (in words)” value ([1]; conclusion from Tables 2 and 3) was “potent anti-fibrotic and ant-inflammatory effect” and the “iNOS level versus sham group (in words)” value (iNOS; [5]) was “reduced to levels similar to those of the sham group”. The “Nitrotyrosine level versus sham group (in words)” value (Nitrotyrosine; [5]) was “reduced to levels similar to those of the sham group”.
With `CNC(=O)c1ccc2ncc(C(=O)O)c(Nc3ccc(OC)cc3)c2c1` [I-4 × HCl, 4-[(4-Methoxyphenyl)amino]-6-(methylcarbamoyl)quinoline-3-carboxylic acid hydrochloride] the “Lung IL-1β levels” value (IL-1β) was 50%, the “TGF-β (immunohistochemical localization)” value (TGF-β; [6]) was 0.1% and the “COX-2 (immunohistochemical localization)” value (COX-2; [6]) was 0.1%. For the same compound, the “Poly-ADP-ribose (PAR) (immunohistochemical localization)” value (Poly-ADP-ribose (PAR); [6]) was 0.1%, the “weight loss (in words)” value [2] was “significant attenuation” and the “Lung TNF-α levels” value (TNF-α) was 45%. The “lung inflammation (in words)” value [1, 7] was “significant attenuation”, the “iNOS (immunohistochemical localization)” value (iNOS; [6]) was 0.1% and the “Nitrotyrosine (immunohistochemical localization)” value (Nitrotyrosine; [6]) was 0.1%. For the same compound, the “Lung myeloperoxidase (MPO)” value (Myeloperoxidase (MPO)) was 47%, the “acute lung injury (in words)” value [3, 7] was “significant attenuation” and the “histological scoring of fibrosis (in words)” value [3, 7] was “significant attenuation”. The “Histological fibrosis score, Mean” value ([3]; group mean of 10 mice, BLM-injured CD-1 mice, 30 mg/kg s.c. 30 min after BLM and every 12 h, 7 days after BLM, scale from 0 to 8) was 2.40, the Histological fibrosis score ([3]; individual mice 1-10, BLM-injured CD-1 mice, 30 mg/kg s.c. 30 min after BLM and every 12 h, 7 days after BLM, scale from 0 to 8, hydrochloride, 30 mg/kg) was 2.0 (4×) and 3.0 (5×) and 1.0 and the “Histological score for lung acute injury” value [3, 6] was 33%. The “lung oedema (in words)” value (lung oedema; [7]) was “significant attenuation”, the “Wet/dry weight ratio (oedema)” value (lung oedema; [6]) was 52% and the “Lung TBARS levels” value [4] was 45%.
